According to ChEMBL document CHEMBL1150642, “Hirsutellide A, a new antimycobacterial cyclohexadepsipeptide from the entomopathogenic fungus Hirsutella kobayasii” (J Nat Prod, 2002):
In brackets after ≈: the same amount, converted by molar mass. Where a SMILES comes first, the peptide text is derived from it. [ ]: non-standard residue; d: D form. aIle = CC[C@@H](C)[C@H](N)C(=O)O; dPhLac = O=C(O)[C@H](O)Cc1ccccc1; Sar = CNCC(=O)O

Columns and labels:
Plasmodium falciparum = assay: Antimalarial activity as reduced parasitaemia against multidrug-resistant Plasmodium falciparum K1 by [3H]hypoxanthine uptake; format: functional, organism-based
[1] = Cytotoxicity against human BC1 cells; format: functional, cell-based
Vero = assay: Cytotoxicity against african green monkey Vero cells at 50 ug/mL by SRB assay; format: cell-based; details: Chlorocebus sabaeus
[2] = system: Mycobacterium tuberculosis; assay: Antimycobacterial activity against Mycobacterium tuberculosis H37Ra by Microplate Alamar Blue Assay; format: functional

C[C@@H]1CC[C@H]2[C@@H](C)C(=O)O[C@@H]3O[C@@]4(C)CC[C@@H]1[C@]32OO4 [ARTEMISININ]
IC50 (Plasmodium falciparum): 0.001 µg/mL (≈ 0.00354 µM)

Cc1c2ccncc2c(C)c2c1[nH]c1ccccc12 [ELLIPTECINE]
IC50 [1]: 0.3 µg/mL (≈ 1.22 µM)

CC[C@@H](C)[C@@H]1NC(=O)[C@@H](Cc2ccccc2)OC(=O)CN(C)C(=O)[C@H]([C@H](C)CC)NC(=O)[C@@H](Cc2ccccc2)OC(=O)CN(C)C1=O [HIRSUTELLIDE A] (cyclo([Sar][dPhLac][aIle][Sar][dPhLac][aIle]))
IC50 (Vero): 2.8 µg/mL (≈ 4.21 µM)
Activity (Plasmodium falciparum): Not toxic
MIC [2]: 6 µg/mL (≈ 9.03 µM)

NNC(=O)c1ccncc1 [ISONIAZID]
MIC [2]: 0.04 µg/mL (≈ 0.292 µM)

NC[C@H]1O[C@H](O[C@H]2[C@H](O)[C@@H](O[C@H]3O[C@H](CO)[C@@H](O)[C@H](N)[C@H]3O)[C@H](N)C[C@@H]2N)[C@H](O)[C@@H](O)[C@@H]1O.O=S(=O)(O)O [KANAMYCIN SULFATE]
MIC [2]: 2 µg/mL
